Experimental data taken from patent US20090005270A1 (priority 2005, published 2009).
Read-outs that look alike come from different tables or passages of the source.

Tests used:
[1] = cited from earlier work
human recombinant CYP2A6 [2] = molecular target: T1, human recombinant CYP2A6 (Homo sapiens, UniProt P10635); experiment: biochemical
[3] = in vivo; cited from earlier work
[4] = poor metabolizers, 15 mg dose; cited from earlier work
human recombinant CYP3A4 = human recombinant CYP3A4 (Homo sapiens, UniProt P08684); experiment: Inhibition of dibenzylfluorescein metabolism by cDNA-expressed CYP3A4 (fluorimetric); conditions: read-out: IC50 (concentration that yields 50% inhibition of the metabolism of dibenzyl-fluorescein), dibenzyl-fluorescein 5 · 10^−7 M
Sequence of human recombinant CYP3A4 (P08684 whole entry): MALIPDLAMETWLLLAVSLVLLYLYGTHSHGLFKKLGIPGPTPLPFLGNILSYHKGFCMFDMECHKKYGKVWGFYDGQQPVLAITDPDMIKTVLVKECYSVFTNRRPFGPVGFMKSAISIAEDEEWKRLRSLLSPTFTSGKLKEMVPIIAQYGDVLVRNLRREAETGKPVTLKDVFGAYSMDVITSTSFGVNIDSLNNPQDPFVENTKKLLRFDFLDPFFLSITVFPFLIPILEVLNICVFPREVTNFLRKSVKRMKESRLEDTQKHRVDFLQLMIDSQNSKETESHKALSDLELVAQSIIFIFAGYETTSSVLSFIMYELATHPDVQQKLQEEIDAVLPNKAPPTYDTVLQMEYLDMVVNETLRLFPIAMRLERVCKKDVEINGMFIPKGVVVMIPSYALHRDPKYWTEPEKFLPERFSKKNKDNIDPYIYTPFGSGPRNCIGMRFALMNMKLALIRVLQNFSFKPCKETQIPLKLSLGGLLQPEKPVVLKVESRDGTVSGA

human recombinant CYP2A6 [5] = molecular target: T1, human recombinant CYP2A6; conditions: recombinant enzyme

T1 sequence (P10635 whole entry): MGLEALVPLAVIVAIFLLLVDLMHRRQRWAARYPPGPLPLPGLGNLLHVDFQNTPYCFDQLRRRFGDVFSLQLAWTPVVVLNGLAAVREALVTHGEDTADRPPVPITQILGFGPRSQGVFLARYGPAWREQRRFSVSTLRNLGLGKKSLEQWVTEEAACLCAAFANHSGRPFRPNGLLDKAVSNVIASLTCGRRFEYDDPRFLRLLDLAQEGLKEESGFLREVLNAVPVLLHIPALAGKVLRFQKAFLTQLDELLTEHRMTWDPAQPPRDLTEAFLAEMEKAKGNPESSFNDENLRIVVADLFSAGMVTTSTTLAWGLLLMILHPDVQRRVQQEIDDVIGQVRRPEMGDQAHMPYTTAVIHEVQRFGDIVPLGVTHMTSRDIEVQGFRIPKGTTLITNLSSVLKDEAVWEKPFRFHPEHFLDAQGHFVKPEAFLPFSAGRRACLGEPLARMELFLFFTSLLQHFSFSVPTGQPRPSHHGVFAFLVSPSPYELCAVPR

## Br.COc1ccc2c(c1)[C@@]13CCCC[C@H]1[C@@H](C2)N(C)CC3.O [Dextromethorphan, 3 Methoxy-17-methylmorphinan hydrobromide monohydrate]
[1]; fast metabolizers, 30 mg dose, four hours post ingestion
  plasma level: less than 5 ng/mL
[1]; intermediate metabolizers, oral 30 mg, 4 hours
  plasma level: 10 to 20 ng/mL
[1]; intermediate metabolizers, oral 30 mg, 24 hours postingestion
  plasma level: less than 5 ng/mL
[1]; oral 30 mg, 4 hours (continues the poor metabolizers passage of b121)
  plasma level: greater than 10 ng/mL
[1]; oral 30 mg, 24 hours (continues the poor metabolizers passage of b121)
  plasma level: greater than 5 ng/mL
Human recombinant CYP2A6 [2]
  IC50: 1.82 µM
[3]
  part of the dose forming minor metabolites (D-methoxymorphinane, D-hydroxmorphinane): Less than 15%
[4]
  ratio of metabolite to parent drug in 8 hour urine sample: 10 to 1

## COc1ccc(CCN(CCCC(C#N)(c2ccc(OC)c(OC)c2)C(C)C)CC(F)(F)F)cc1OC (stereo not shown) [N-(2,2,2-trifluoroethyl)norverapamil]
Human recombinant CYP3A4
  IC50: 1.93 µM

## CN1CC[C@]23CCCC[C@H]2[C@H]1Cc1ccc(OCC(F)(F)F)cc13 [O-(2,2,2-trifluoroethyl)-N-methylmorphinan]
Human recombinant CYP2A6 [5]
  IC50: 0.425 µM
